Results from patent US20210000917A1, “METHODS AND COMPOSITION FOR THE TREATMENT OF ALLERGIC ASTHMA” (INSERM (Institut National de la Santé et de la Recherche …, priority 2018, published 2021).

B1: Der p 2.2: polypeptide consisting of the amino acid sequence 71 to 146 of SEQ ID NO: 1 (Der p 2 fragment) (protein, listed as Dermatophagoides pteronyssinus)
chain: IKASIDGLEVDVPGIDPNACHYMKCPLVKGQQYDIKYTWNVPKIAPKSENVVVTVKVMGDDGVLACAIATHAKIRD

How the values were obtained:
[1] = test system: mouse model of HDM-induced asthma; test: Treg and natural killer cells by flow cytometry in mouse model of HDM-induced asthma; format: in vivo, BALB/c female mice; details: 20 μg peptide in Alum subcutaneously on day 30 and day 34
Method: (§1) BALB/c female mice aged 6 to 8 weeks were purchased from Charles River Breeding Laboratories and used for all experiments. The animals were housed in UTE IRS-UN platform (Nantes, France). The mice were maintained under specific pathogen-free, temperature-controlled conditions under a strict 12-hour light-dark cycle and were given free access to food and water. The mice were sensitized on days 0, 7, 14 and 21 by percutaneous application of 500 μg of total extract of Dermatophagoïdes farinae (HDM) (Stallergenes, Antony, France) in 20 μl of dimethylsulfoxide (Sigma- Aldrich, St Louis, Mo.) on the ears without any synthetic adjuvant. The mice were challenged intranasally with 250 μg of HDM (House Dust Mite) in 40 μl of sterile PBS on day 27, 28 and 29 to induce asthma and again on days 35, 36 and 37 to induce asthma exacerbation. Animals were anesthetized with 100 μg of xylazine (ROMPUN 2%, Bayer, Lyon, France, 15 mg/kg) intraperitoneally and 100 μl of ketamine (IMALGENE100, Merial, Lyon, France, 80 mg/kg) for both sensitizations and challenges. […]
For analysis of BAL cells, the following antibodies were used: CD3 PE-Cy7, F4/80 FITC (eBioscience); CCR3 APC (R&D Systems) and Ly6G-PerCP Cy5.5 (BD Biosciences). Stained cells resuspended in PBS were acquired on a BD LSR II (BD Biosciences) and were analyzed on FlowJo software (Tree Star). […]

[2] = cited from earlier work; for in vivo allergenic activity and allergenicity: compared with the Derp 2 allergen; for immunogenicity: in vivo
Der p 2-specific IgE = Der p 2-specific IgE level in mouse model of HDM-induced asthma; format: in vivo, BALB/c female mice; details: 20 μg peptide in Alum subcutaneously on day 30 and day 34; FIG. 1E serum level
Method: as §1, with “challenges. Mice were sacrified by […] injection of dolethal (vetoquinol) on day 39 (FIG. 1A). For dynamic lung resistance measurements, mice were anesthetized with 200 μl of a ketamine-xylazine mix and paralyzed with 100 μl of rocuronium bromide (ESMERON, Organon, Kloosterstraat, The Netherlands, 10 mg/ml) intraperitoneally.” for “challenges.”

[3] = test system: mouse model of HDM-induced asthma; test: Airway hyperresponsiveness measurement (flexiVent, methacholine) in mouse model of HDM-induced asthma; format: in vivo, BALB/c female mice; details: for respiratory function (airway resistances and elastance to increasing doses of methacholine): 20 μg peptide in Alum subcutaneously on day 30 and day 34, measured day 38, vs asthmatic-like (HDM) mice
Method: (§2) BALB/c female mice aged 6 to 8 weeks were purchased from Charles River Breeding Laboratories and used for all experiments. The animals were housed in UTE IRS-UN platform (Nantes, France). The mice were maintained under specific pathogen-free, temperature-controlled conditions under a strict 12-hour light-dark cycle and were given free access to food and water. The mice were sensitized on days 0, 7, 14 and 21 by percutaneous application of 500 μg of total extract of Dermatophagoïdes farinae (HDM) (Stallergenes, Antony, France) in 20 μl of dimethylsulfoxide (Sigma- Aldrich, St Louis, Mo.) on the ears without any synthetic adjuvant. The mice were challenged intranasally with 250 μg of HDM (House Dust Mite) in 40 μl of sterile PBS on day 27, 28 and 29 to induce asthma and again on days 35, 36 and 37 to induce asthma exacerbation. Animals were anesthetized with 100 μg of xylazine (ROMPUN 2%, Bayer, Lyon, France, 15 mg/kg) intraperitoneally and 100 μl of ketamine (IMALGENE100, Merial, Lyon, France, 80 mg/kg) for both sensitizations and challenges. Mice were sacrified by sublethal injection of dolethal (vetoquinol) on day 39 (FIG. 1A). For dynamic lung resistance measurements, mice were anesthetized with 200 μl of a ketamine-xylazine mix and paralyzed with 100 μl of rocuronium bromide (ESMERON, Organon, Kloosterstraat, The Netherlands, 10 mg/ml) intraperitoneally.
(§3) Derivative peptide (Derp 2.1) was purified as previously described by Chen et al. 1Peptide was injected on day 30 after de third challenge and on day 34 before the fourth challenge. Derp 2.1 was solubilized with sterile PBS to a final concentration of 100 μg/ml. pproximately 200 μl of a solution of Alum (Imject Alum, Thermo Scientific) containing 20 μg of the peptide was injected subcutaneously in the neck of the mice.
Dynamic lung resistances were measured using a flexiVent (SCIREQ, Emka). Mice were anesthetized and connected via an endotracheal cannula to a flexiVent system. […] Airway resistances wee continuously monitored and recorded according to manufacturer's instructions.

[4] = test system: mouse model of HDM-induced asthma; test: BAL cell counts by flow cytometry in mouse model of HDM-induced asthma; format: in vivo, BALB/c female mice; details: 20 μg peptide in Alum subcutaneously on day 30 and day 34, BAL day 38
Method: as §2, with “Mice were sacrified by sublethal injection of dolethal (vetoquinol) on day 39 (FIG. 1A).” left out
as §3
One milliliter of sterile PBS was administered to mice through a flexible catheter. Cells and supernatants from the removed fluid were separated by centrifugation. The total cell number was determined by using flow cytometry (see below). Supernatants were stored at −20° C.
For analysis of BAL cells, the following antibodies were used: CD3 PE-Cy7, F4/80 FITC (eBioscience); CCR3 APC (R&D Systems) and Ly6G-PerCP Cy5.5 (BD Biosciences). Stained cells resuspended in PBS were acquired on a BD LSR II (BD Biosciences) and were analyzed on FlowJo software (Tree Star). To study lung, mediastinal lymph nodes (mLN) and spleen T-cell responses, these organs were removed and mechanically disrupted in RPMI 1640 media. Cells were passed through a 40 μm filter. Red blood cells from lung and spleen were lysed with a solution of Red Blood Cells lysis (Sigma Aldrich). Cells from mLN, lung and spleen were transferred to a 96-wells round-bottom plate and were stimulated for 5 hours with a mix containing phorbol 12-myristate 13-acetate (50 ng/ml) and ionomycin (500 ng/ml; Sigma-Aldrich) together. […]

Molecule | regulators lymphocytes T (Treg cells) ([1]; FIG. 1F frequency of lung Treg cells) | natural killer cells ([1]; FIG. 1G number of lung natural killer cells) | in vivo allergenic activity and allergenicity [2] | immunogenicity [2] | Derp2 specific IgE (Der p 2-specific IgE) | respiratory function (airway resistances and elastance to increasing doses of methacholine) [3] | respiratory function (airway resistances and elastance to increasing doses of methacholine) ([3]; listed as derp2.1) | airway hyperresponsiveness and asthma exacerbations ([3]; summary statement comparing Derp 2.1 with Der p 2.2) | eosinophils in BAL [4] | neutrophils in BAL [4] | eosinophils in BAL ([4]; listed as derp2.1) | neutrophils in BAL ([4]; listed as derp2.1)
Derp2.1: polypeptide having a sequence consisting of amino acids 18 to 70 of SEQ ID NO: 1 (Der p 2 fragment); rDer p 2.1 is the recombinant form from E. coli (DQVDVKDCANHEIKKVLVPGCHGSEPCIIHRGKPFQLEAVFEANQNTKTAKIE; listed as Dermatophagoides pteronyssinus) | increase | reduction | less in vivo allergenic activity and allergenicity than the Derp 2 allergen | preserved immunogenicity | reduction | improved | respiratory improvement | enables to decrease airway hyperresponsiveness and prevent asthma exacerbations | reduced | reduced | reduction | reduction
B1 | – | – | less in vivo allergenic activity and allergenicity than the Derp 2 allergen | preserved immunogenicity | – | – | – | – | – | – | – | –
